According to publication PMC9103758 (International Journal of Molecular Sciences, 2022):
Values joined by “and” are separate entries in the source; they are usually repeats but may differ in a detail not shown here. Identical values can stand only once.

Legend:
NIH-3T3 cells = assay: Cell viability (MTS/MTT) in NIH-3T3 cells; type: cell-based; settings: 24 h, up to/at 30 μM
Description: […]. (A) Structure of VI-116. (B) Representative YFP fluorescence traces. The inhibitory effects of VI-116 on VRAC activity were determined using YFP fluorescence assay in LN215 cells. VRAC was activated by application of […] solution for 5 min. (C) Summary of VRAC dose-response (mean ± S.E., n = 4). (D) Summary of VRAC dose−response with 10% FBS (mean ± S.E., n = 4). […].
NIH-3T3 cells were plated on 96-well microplates. After 24 h incubation, cells were treated with VI-116 or DCPIB and incubated for 24 h. The culture medium and the compounds were changed every 12 h. To assess cell proliferation, the cells were incubated with MTS for 1 h. The soluble formazan produced by the cellular reduction of MTS was quantified by measuring the absorbance at 490 nm with an Infinite M200 (Tecan, Grödig, Austria) microplate reader. MTS assay was performed using a CellTiter 96 Aqueous One Solution Cell Proliferation Assay kit (Promega, Madison, WI, USA).

[1] = target: T1, VRAC-mediated chloride current (ICl, swell) in HEK293T cells (Homo sapiens, UniProt Q8IWT6); assay: Whole-cell voltage-clamp of ICl,swell in HEK293T cells; type: cell-based; settings: dose-dependent
T1 construct: endogenous in cells; host or cells: HEK293T
T1 sequence (Q8IWT6 1-810): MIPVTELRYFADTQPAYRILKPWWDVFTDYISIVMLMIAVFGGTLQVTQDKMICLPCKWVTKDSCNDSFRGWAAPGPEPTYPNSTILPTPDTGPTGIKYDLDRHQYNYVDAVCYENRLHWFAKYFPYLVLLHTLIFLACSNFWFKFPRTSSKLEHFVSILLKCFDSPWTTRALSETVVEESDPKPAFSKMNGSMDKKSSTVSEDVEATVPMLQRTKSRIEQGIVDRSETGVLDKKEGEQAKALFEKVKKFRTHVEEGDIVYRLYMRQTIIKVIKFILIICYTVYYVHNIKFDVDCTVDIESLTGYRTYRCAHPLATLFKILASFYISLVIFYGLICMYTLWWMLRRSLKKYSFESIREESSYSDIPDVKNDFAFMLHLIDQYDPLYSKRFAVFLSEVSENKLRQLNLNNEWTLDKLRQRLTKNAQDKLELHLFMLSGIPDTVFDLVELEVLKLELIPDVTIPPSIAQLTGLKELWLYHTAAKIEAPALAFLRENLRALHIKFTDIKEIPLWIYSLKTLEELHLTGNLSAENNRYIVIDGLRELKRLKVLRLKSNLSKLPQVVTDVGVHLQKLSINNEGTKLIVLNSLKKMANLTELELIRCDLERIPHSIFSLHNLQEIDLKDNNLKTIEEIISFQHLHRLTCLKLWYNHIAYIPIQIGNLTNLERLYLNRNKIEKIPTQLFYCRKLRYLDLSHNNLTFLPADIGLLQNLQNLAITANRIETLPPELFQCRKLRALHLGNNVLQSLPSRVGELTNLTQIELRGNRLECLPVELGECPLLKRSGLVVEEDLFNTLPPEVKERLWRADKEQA
Description: (§1) (A) Whole-cell membrane currents were recorded at a holding potential of −50 mV by voltage steps ranging from −120 to 120 mV (in steps of 20 mV) in HEK293T cells. […] (C) Whole-cell VRAC currents were recorded at a holding potential of −50 mV by voltage steps ranging from −100 to 100 mV (in steps of 20 mV) in LN215 cells.
(§2) For volume-regulated anion channel (VRAC) currents measurement, the isotonic bath solution contained (in mM): 150 NaCl, 6 KCL, 1.5 CaCl2, 1 MgCl2, 10 glucose, 1 HEPES, and pH 7.4 with NaOH (320 mOsm). […] The pipette solution contained (in mM): 40 CsCl, 100 Cs-methanesulfonate, 0.5 EGTA, 1 MgCl2, 1.9 CaCl2, 5 EGTA, 4 Tris−ATP, 10 HEPES, and pH 7.2 with CsOH (290 mOsm). Pipettes were pulled from borosilicate glass and had resistances of 3–5 MΩ after fire polishing. Seal resistances were between 3 and 10 GΩ. The liquid junction potential (~2.4 mV) was not corrected. After establishing the whole-cell configuration, whole-cell capacitance and series resistance were compensated with the amplifier circuitry. VRAC was activated by exposing LN215 cells to a 25% hypotonic bath solution. Whole-cell currents were elicited by applying hyperpolarizing and depolarizing voltage pulses from a holding potential of 0 mV to potentials between −100 mV and +100 mV or −120 mV and +120 mV in steps of 20 mV. Recordings were made at room temperature. […]

[2] = target: T2, VRAC-mediated chloride current (ICl, swell) in LN215 cells (Homo sapiens, UniProt Q8IWT6); assay: Whole-cell voltage-clamp of ICl,swell in LN215 cells; type: cell-based; settings: dose-dependent
T2 construct: endogenous in cells; host or cells: LN215 human glioma cells stably expressing the halide sensor YFP-F46L/H148Q/I152L
T2 sequence (Q8IWT6 1-810): T1 sequence (Q8IWT6 1-810)
Description: as §1, §2

human ANO2 = target: T3, human ANO2 (Homo sapiens, UniProt Q9NQ90); assay: YFP fluorescence quenching assay in FRT cells expressing human ANO2; type: cell-based; settings: FRT cells expressing human ANO2, up to 10 μM
T3 construct: expressed in transfected cells; host or cells: Fisher rat thyroid (FRT) cells
T3 sequence (Q9NQ90 1-998): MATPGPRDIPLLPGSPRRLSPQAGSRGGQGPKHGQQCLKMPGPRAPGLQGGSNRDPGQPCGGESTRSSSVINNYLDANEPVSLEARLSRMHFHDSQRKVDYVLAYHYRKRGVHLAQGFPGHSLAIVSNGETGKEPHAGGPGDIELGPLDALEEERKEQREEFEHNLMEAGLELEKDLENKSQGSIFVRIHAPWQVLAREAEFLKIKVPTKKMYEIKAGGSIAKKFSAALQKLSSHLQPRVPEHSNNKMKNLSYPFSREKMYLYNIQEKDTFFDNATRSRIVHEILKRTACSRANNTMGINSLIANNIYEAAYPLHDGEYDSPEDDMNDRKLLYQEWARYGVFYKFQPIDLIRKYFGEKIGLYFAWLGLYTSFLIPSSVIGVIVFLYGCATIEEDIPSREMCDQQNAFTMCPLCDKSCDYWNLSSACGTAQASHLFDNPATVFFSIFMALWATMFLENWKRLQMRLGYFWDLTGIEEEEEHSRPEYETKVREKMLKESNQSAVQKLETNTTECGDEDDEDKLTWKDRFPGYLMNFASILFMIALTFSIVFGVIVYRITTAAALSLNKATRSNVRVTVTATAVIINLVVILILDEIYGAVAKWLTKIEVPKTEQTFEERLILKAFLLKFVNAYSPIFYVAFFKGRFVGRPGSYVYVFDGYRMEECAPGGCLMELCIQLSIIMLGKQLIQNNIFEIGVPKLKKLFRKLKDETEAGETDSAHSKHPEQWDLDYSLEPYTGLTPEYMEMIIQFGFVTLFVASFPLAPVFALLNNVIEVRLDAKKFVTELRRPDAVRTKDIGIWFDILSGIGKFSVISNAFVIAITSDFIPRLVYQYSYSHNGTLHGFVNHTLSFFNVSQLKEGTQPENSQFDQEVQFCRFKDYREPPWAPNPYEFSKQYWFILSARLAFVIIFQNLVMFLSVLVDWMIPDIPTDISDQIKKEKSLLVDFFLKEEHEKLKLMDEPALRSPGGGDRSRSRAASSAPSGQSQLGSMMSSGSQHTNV
Description: ANO2 activity was measured using YFP fluorescence quenching assay in FRT cells expressing human ANO2.
(D) Representative YFP fluorescence traces in FRT cells expressing human ANO2.

VRAC in HeLa cells = target: T4, VRAC in HeLa cells (Homo sapiens, UniProt Q8IWT6); type: cell-based
T4 construct: endogenous in cells; host or cells: HeLa cervical cancer cells stably expressing the YFP halide sensor
T4 sequence (Q8IWT6 1-810): T1 sequence (Q8IWT6 1-810)

VRAC = target: T5, VRAC (Homo sapiens, UniProt Q8IWT6); assay: cell-based; settings: LN215 cells
T5 sequence (Q8IWT6 1-810): T1 sequence (Q8IWT6 1-810)

COc1cccc(C(c2c(O)c3ccccc3oc2=O)c2c(O)c3ccccc3oc2=O)c1O [VI-116, 3,3′-((2-hydroxy-3-methoxyphenyl)methylene)bis(4-hydroxy-2H-chromen-2-one)]
effect on cell viability (NIH-3T3 cells): did not affect cell viability | effect on hypotonic perfusion activated ICl, swell [1]: completely blocked | effect on hypotonic perfusion activated ICl, swell [2]: completely blocked | effect on ANO2 activity (human ANO2): minimal effect | IC50 (VRAC in HeLa cells): 1.2 ± 0.08 µM | IC50 (VRAC; VRAC IC50, YFP fluorescence quenching, hypotonic solution 5 min, n = 4): 1.28 µM and 1.27 µM and 1.3 µM | IC50 (VRAC; VRAC IC50 in the presence of 10% FBS, medium containing 10% FBS, 5 min): 6.89 µM
